Consider 7 compounds from patent US7115611B2, “Phenyl derivatives, their manufacture and use as pharmaceutical agents” (Hoffmann-la Roche Inc., priority 2003, dated 2006).

Structures are written as SMILES.

One data set deals with T1, PPARα (Homo sapiens, UniProt Q07869).
T1 construct: PPARα (aa 167 to 469); made in house; host or cells: E. coli BL21 (pLysS)
T1 sequence (Q07869 167-468 limits assumed): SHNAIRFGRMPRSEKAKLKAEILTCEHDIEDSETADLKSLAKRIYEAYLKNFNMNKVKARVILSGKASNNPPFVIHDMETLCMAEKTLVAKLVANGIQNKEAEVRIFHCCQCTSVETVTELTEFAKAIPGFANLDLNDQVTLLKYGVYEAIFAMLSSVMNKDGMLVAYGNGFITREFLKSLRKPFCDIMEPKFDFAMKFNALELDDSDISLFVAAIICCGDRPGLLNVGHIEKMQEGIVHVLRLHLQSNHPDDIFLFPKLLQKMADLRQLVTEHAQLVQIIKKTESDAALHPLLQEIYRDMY
Description: PPARα receptor radioligand binding assay (SPA). The conditions noted are these: GST-PPARα-LBD fusion protein on SPA beads. The source says:
(§1) Background information on the performed assays can be found in: Nichols J S et al. “Development of a scintillation proximity assay for peroxisome proliferator-activated receptor gamma ligand binding domain”, (1998) Anal. Biochem. 257:112–119.
(§2) Full-length cDNA clones for humans PPARδ and PPARα and mouse PPARγ were obtained by RT-PCR from human adipose and mouse liver cRNA, respectively, cloned into plasmid vectors and verified by DNA sequencing. Bacterial and mammalian expression vectors were constructed to produce glutathione-s-transferase (GST) and Gal4 DNA binding domain proteins fused to the ligand binding domains (LBD) of PPARδ (aa 139 to 442), PPARγ (aa 174 to 476) and PPARα (aa 167 to 469). To accomplish this, the portions of the cloned sequences encoding the LBDs were amplified from the full-length clones by PCR and then subcloned into the plasmid vectors. Final clones were verified by DNA sequence analysis.
(§3) Induction, expression, and purification of GST-LBD fusion proteins were performed in E. coli strain BL21 (pLysS) cells by standard methods (Ref: Current Protocols in Molecular Biology, Wiley Press, edited by Ausubel et al.).
(§4) PPARα receptor binding was assayed in TKE50 (50 mM Tris-HCl, pH 8, 50 mM KCl, 2 mM EDTA, 0.1 mg/ml fatty acid-free BSA and 10 mM DTT). For each 96 well reaction an 140 ng equivalent of GST-PPARα-LBD fusion protein was bound to 10 μg SPA beads (PharmaciaAmersham) in a final volume of 50 μl by shaking. The resulting slurry was incubated for 1 h at RT and centrifuged for 2 min at 1300 g. The supernatant containing unbound protein was removed and the semidry pellet containing the receptor-coated beads was resolved in 50 μl of TKE. […] All binding assays were performed in 96 well plates and the amount of bound ligand measured on a Packard TopCount using OptiPlates (Packard). Nonspecific binding was determined in the presence of 10^−4 M unlabelled compound. […]

The next data set deals with T2, PPARγ (Mus musculus, UniProt P37238).
T2 construct: PPARγ (aa 174 to 476); made in house; host or cells: E. coli BL21 (pLysS)
T2 sequence (P37238 174-475 isoform P37238-2): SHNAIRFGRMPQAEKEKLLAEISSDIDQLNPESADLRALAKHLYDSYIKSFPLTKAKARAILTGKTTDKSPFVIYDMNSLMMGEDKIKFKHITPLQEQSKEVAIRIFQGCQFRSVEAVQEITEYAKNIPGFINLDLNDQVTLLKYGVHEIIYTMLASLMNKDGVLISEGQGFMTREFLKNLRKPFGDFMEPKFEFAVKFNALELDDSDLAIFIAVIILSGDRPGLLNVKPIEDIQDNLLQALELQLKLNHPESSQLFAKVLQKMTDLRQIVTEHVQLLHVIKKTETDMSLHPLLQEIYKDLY
Nature of the data set: PPARγ receptor radioligand binding assay (SPA). To be noted: GST-PPARγ-LBD fusion protein on SPA beads.
Text: as §1, §2, §3
as §4, with “PPARγ receptor” for “PPARα receptor”, “reaction a” for “reaction an”, “of GST-PPARγ-LBD” for “of GST-PPARα-LBD”, “50 ul” for “50 μl”, “at 1300g.” for “at 1300 g.”

The target of a further data set is T3, PPARδ (Homo sapiens, UniProt Q03181).
T3 construct: PPARδ (aa 139 to 442); made in house; host or cells: E. coli BL21 (pLysS)
T3 sequence (Q03181 139-441 limits assumed): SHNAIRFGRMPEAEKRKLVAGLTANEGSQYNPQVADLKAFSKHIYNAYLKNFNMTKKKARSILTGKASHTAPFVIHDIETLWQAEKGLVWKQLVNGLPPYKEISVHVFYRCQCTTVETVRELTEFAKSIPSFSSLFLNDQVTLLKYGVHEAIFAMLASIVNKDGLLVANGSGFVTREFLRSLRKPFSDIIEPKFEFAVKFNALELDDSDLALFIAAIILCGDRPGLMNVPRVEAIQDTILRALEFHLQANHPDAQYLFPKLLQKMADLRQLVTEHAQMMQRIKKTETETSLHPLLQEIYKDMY
Nature of the data set: PPARδ receptor radioligand binding assay (SPA). The conditions noted are these: GST-PPARδ-LBD fusion protein on SPA beads.
Text: as §1, §2, §3
PPARδ receptor binding was assayed in HNM10 (50 mM Hepes, pH 7.4, 10 mM NaCl, 5 mM MgCl2, 0.15 mg/ml fatty acid-free BSA and 15 mM DTT). For each 96 well reaction a 500 ng equivalent of GST-PPARδ-LBD fusion protein and radioligand, e.g. 20000 dpm {2-methyl-4-[4-methyl-2-(4-trifluoromethyl-phenyl)-thiazol-5-yl-ditritiomethylsulfanyl]-phenoxy}-acetic acid, was bound to 10 μg SPA beads (PharmaciaAmersham) in a final volume of 50 μl by shaking. The resulting slurry was incubated for 1 h at RT and centrifuged for 2 min at 1300 g. […] Radioligand was added and the reaction incubated at RT for 1 h and scintillation proximity counting performed in the presence of test compounds was determined. All binding assays were performed in 96 well plates and the amount of bound ligand was measured on a Packard TopCount using OptiPlates (Packard). […]

Take `Cc1cc(OC(C)c2ccc(-c3ccc(C(F)(F)F)cc3)nc2C)ccc1SCC(=O)O` (racemic) [Example 20, [rac]-(2-Methyl-4-{1-[2-methyl-6-(4-trifluoromethyl-phenyl)-pyridin-3-yl]-ethoxy}-phenylsulfanyl)-acetic acid]: the IC50 (in general, the midpoint of a concentration-inhibition curve) was 454 nM on PPARα, above 10000 nM at PPARγ and 2 nM on PPARδ.
For the compound `Cc1cc(OCc2ccc(-c3cccc(C(F)(F)F)c3)nc2C)ccc1OC(C)(C)C(=O)O` [Example 8, 2-Methyl-2-{2-methyl-4-[2-methyl-6-(3-trifluoromethyl-phenyl)-pyridin-3-ylmethoxy]-phenoxy}-propionic acid], the melting point (in general, the temperature, or range, at which the solid turns liquid) was 105 to 107 °C. This compound came in with an IC50 at PPARα of 13 nM. The compound further yielded an IC50 at PPARγ above 10000 nM. On PPARδ, the IC50 worked out at 26 nM.
On to `Cc1cc(N(C)Cc2cnc(-c3ccc(C(F)(F)F)cc3)nc2C2CC2)ccc1OCC(=O)O` [Example 27, (4-{[4-Cyclopropyl-2-(4-trifluoromethyl-phenyl)-pyrimidin-5-ylmethyl]-methyl-amino}-2-methyl-phenoxy)-acetic acid], for which the IC50 was 289 nM on PPARα, above 10000 nM at PPARγ and 31 nM at PPARδ.
`Cc1cc(SCc2cnc(-c3ccc(OC(F)(F)F)cc3)nc2C2CC2)ccc1OC(C)(C)C(=O)O` [Example 142, 2-{4-[4-Cyclopropyl-2-(4-trifluoromethoxy-phenyl)-pyrimidin-5-ylmethylsulfanyl]-2-methyl-phenoxy}-2-methyl-propionic acid]: the melting point is 127 to 128 °C (dec.).
Same read-out and setting: the value for `Cc1cc(SCc2cnc(-c3ccc(C(F)(F)F)cc3)nc2C2CC2)ccc1OC(C)(C)C(=O)O` [Example 144, 2-{4-[4-Cyclopropyl-2-(4-trifluoromethyl-phenyl)-pyrimidin-5-ylmethylsulfanyl]-2-methyl-phenoxy}-2-methyl-propionic acid] was 129 to 131 °C.
The same measure, in the same setting: the value for `Cc1cc(OCc2ccc(-c3ccc(OC(F)(F)F)cc3)nc2C2CC2)ccc1OC(C)(C)C(=O)O` [Example 145, 2-{4-[2-Cyclopropyl-6-(4-trifluoromethoxy-phenyl)-pyridin-3-ylmethoxy]-2-methyl-phenoxy}-2-methyl-propionic acid] was 131 to 133 °C; that for `Cc1cc(OCc2ccc(-c3ccc(C(F)(F)F)cc3)nc2C)ccc1SCC(=O)O` [Example 146, {2-Methyl-4-[2-methyl-6-(4-trifluoromethyl-phenyl)-pyridin-3-ylmethoxy]-phenylsulfanyl}-acetic acid] was 168 to 169 °C.
